Results: PubChem BioAssay (NCI)
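Following 48 hours of exposure in 96-well plates, responses at five concentrations were used to interpolate endpoints linearly. Here, GI50 denotes the concentration required for 50% inhibition of growth. TGI: concentration producing complete growth inhibition.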

How the values were obtained:
Experiment in all cases: inhibition of tumour cell growth, NCI panel, 48 h
786-0 renal = test system: 786-0 renal
SK-MEL-5 melanoma = test system: SK-MEL-5 melanoma
SNB-19 CNS = test system: SNB-19 CNS
NCI-H23 lung = test system: NCI-H23 lung
A498 renal = test system: A498 renal
K-562 leukemia = test system: K-562 leukemia
OVCAR-4 ovarian = test system: OVCAR-4 ovarian
RXF 393 renal = test system: RXF 393 renal
MDA-MB-231 breast = test system: MDA-MB-231 breast
ACHN renal = test system: ACHN renal
SK-MEL-2 melanoma = test system: SK-MEL-2 melanoma
HS 578T breast = test system: HS 578T breast
HOP-92 NSCLC = test system: HOP-92 NSCLC
COLO 205 colon = test system: COLO 205 colon
NCI-H460 lung = test system: NCI-H460 lung
NCI-H522 lung = test system: NCI-H522 lung
SW-620 colon = test system: SW-620 colon
SN12C renal = test system: SN12C renal
HT29 colon = test system: HT29 colon
IGROV1 ovarian = test system: IGROV1 ovarian
A549 NSCLC = test system: A549 NSCLC
BT-549 breast = test system: BT-549 breast
M14 melanoma = test system: M14 melanoma
SNB-75 CNS = test system: SNB-75 CNS
SF-539 CNS = test system: SF-539 CNS
CCRF-CEM leukemia = test system: CCRF-CEM leukemia
SR leukemia = test system: SR leukemia
CAKI-1 renal = test system: CAKI-1 renal
EKVX NSCLC = test system: EKVX NSCLC
KM12 colon = test system: KM12 colon
RPMI-8226 leukemia = test system: RPMI-8226 leukemia
MDA-MB-435 = test system: MDA-MB-435
HCT-15 colon = test system: HCT-15 colon
SK-OV-3 ovarian = test system: SK-OV-3 ovarian
DU-145 prostate = test system: DU-145 prostate
TK-10 renal = test system: TK-10 renal
OVCAR-5 ovarian = test system: OVCAR-5 ovarian
OVCAR-8 ovarian = test system: OVCAR-8 ovarian
MOLT-4 leukemia = test system: MOLT-4 leukemia
MCF7 breast = test system: MCF7 breast
UACC-62 melanoma = test system: UACC-62 melanoma
OVCAR-3 ovarian = test system: OVCAR-3 ovarian
HCT-116 colon = test system: HCT-116 colon
HCC-2998 colon = test system: HCC-2998 colon
HOP-62 NSCLC = test system: HOP-62 NSCLC
LOX IMVI melanoma = test system: LOX IMVI melanoma
SF-295 CNS = test system: SF-295 CNS
NCI-H226 lung = test system: NCI-H226 lung
SF-268 CNS = test system: SF-268 CNS
MALME-3M melanoma = test system: MALME-3M melanoma
PC-3 prostate = test system: PC-3 prostate
UACC-257 melanoma = test system: UACC-257 melanoma
NCI/ADR-RES ovarian = test system: NCI/ADR-RES ovarian
HL-60(TB) leukemia = test system: HL-60(TB) leukemia
U251 CNS = test system: U251 CNS

Compound: O=C(COc1cc(O)c2c(=O)cc(-c3ccccc3)oc2c1)Nc1ccccc1C(F)(F)F
- GI50 (786-0 renal): 2.01 µM
- TGI (786-0 renal): 4.15 µM
- GI50 (SK-MEL-5 melanoma): 4.1 µM
- TGI (SK-MEL-5 melanoma): 25.4 µM
- GI50 (SNB-19 CNS): 4.17 µM
- TGI (SNB-19 CNS): 21.7 µM
- GI50 (NCI-H23 lung): 3.07 µM
- TGI (NCI-H23 lung): 11.6 µM
- GI50 (A498 renal): 4.04 µM
- TGI (A498 renal): 17.8 µM
- GI50 (K-562 leukemia): 5.03 µM
- TGI (K-562 leukemia): > 100 µM
- GI50 (OVCAR-4 ovarian): 2.45 µM
- TGI (OVCAR-4 ovarian): 5.94 µM
- GI50 (RXF 393 renal): 2.21 µM
- TGI (RXF 393 renal): 6.34 µM
- GI50 (MDA-MB-231 breast): 2.04 µM
- TGI (MDA-MB-231 breast): 5.26 µM
- GI50 (ACHN renal): 2.91 µM
- TGI (ACHN renal): 9.63 µM
- GI50 (SK-MEL-2 melanoma): 15.1 µM
- TGI (SK-MEL-2 melanoma): 38 µM
- GI50 (HS 578T breast): 2.6 µM
- TGI (HS 578T breast): 7.79 µM
- GI50 (HOP-92 NSCLC): 2.13 µM
- TGI (HOP-92 NSCLC): 6.71 µM
- GI50 (COLO 205 colon): 8.04 µM
- TGI (COLO 205 colon): > 100 µM
- GI50 (NCI-H460 lung): 2.59 µM
- TGI (NCI-H460 lung): 6.68 µM
- GI50 (NCI-H522 lung): 6.77 µM
- TGI (NCI-H522 lung): > 100 µM
- GI50 (SW-620 colon): 3.56 µM
- TGI (SW-620 colon): > 100 µM
- GI50 (SN12C renal): 4.02 µM
- TGI (SN12C renal): > 100 µM
- GI50 (HT29 colon): 6.48 µM
- TGI (HT29 colon): > 100 µM
- GI50 (IGROV1 ovarian): 3.61 µM
- TGI (IGROV1 ovarian): 15.9 µM
- GI50 (A549 NSCLC): 1.71 µM
- TGI (A549 NSCLC): 3.75 µM
- GI50 (BT-549 breast): 5.19 µM
- TGI (BT-549 breast): 38.9 µM
- GI50 (M14 melanoma): 27.6 µM
- TGI (M14 melanoma): > 100 µM
- GI50 (SNB-75 CNS): 1.65 µM
- TGI (SNB-75 CNS): 4.41 µM
- GI50 (SF-539 CNS): 2.21 µM
- TGI (SF-539 CNS): 5.5 µM
- GI50 (CCRF-CEM leukemia): 19.6 µM
- TGI (CCRF-CEM leukemia): 64.1 µM
- GI50 (SR leukemia): 4.44 µM
- TGI (SR leukemia): > 100 µM
- GI50 (CAKI-1 renal): 3.74 µM
- TGI (CAKI-1 renal): 18.7 µM
- GI50 (EKVX NSCLC): 9.37 µM
- TGI (EKVX NSCLC): 62.4 µM
- GI50 (KM12 colon): 8.17 µM
- TGI (KM12 colon): > 100 µM
- GI50 (RPMI-8226 leukemia): 7.03 µM
- TGI (RPMI-8226 leukemia): > 100 µM
- GI50 (MDA-MB-435): 6.03 µM
- TGI (MDA-MB-435): > 100 µM
- GI50 (HCT-15 colon): 3.28 µM
- TGI (HCT-15 colon): 21.1 µM
- GI50 (SK-OV-3 ovarian): 14.9 µM
- TGI (SK-OV-3 ovarian): 50.7 µM
- GI50 (DU-145 prostate): 7.97 µM
- TGI (DU-145 prostate): > 100 µM
- GI50 (TK-10 renal): 1.88 µM
- TGI (TK-10 renal): 3.71 µM
- GI50 (OVCAR-5 ovarian): 7.18 µM
- TGI (OVCAR-5 ovarian): > 100 µM
- GI50 (OVCAR-8 ovarian): 3.67 µM
- TGI (OVCAR-8 ovarian): 32.1 µM
- GI50 (MOLT-4 leukemia): 5.46 µM
- TGI (MOLT-4 leukemia): > 100 µM
- GI50 (MCF7 breast): 7.4 µM
- TGI (MCF7 breast): > 100 µM
- GI50 (UACC-62 melanoma): 6.58 µM
- TGI (UACC-62 melanoma): > 100 µM
- GI50 (OVCAR-3 ovarian): 2.12 µM
- TGI (OVCAR-3 ovarian): 4.12 µM
- GI50 (HCT-116 colon): 1.83 µM
- TGI (HCT-116 colon): 4.06 µM
- GI50 (HCC-2998 colon): > 100 µM
- TGI (HCC-2998 colon): > 100 µM
- GI50 (HOP-62 NSCLC): 2.62 µM
- TGI (HOP-62 NSCLC): 8.19 µM
- GI50 (LOX IMVI melanoma): 4.74 µM
- TGI (LOX IMVI melanoma): 22.6 µM
- GI50 (SF-295 CNS): 2.94 µM
- TGI (SF-295 CNS): 9.13 µM
- GI50 (NCI-H226 lung): 2.28 µM
- TGI (NCI-H226 lung): 6.48 µM
- GI50 (SF-268 CNS): 4.94 µM
- TGI (SF-268 CNS): 26.1 µM
- GI50 (MALME-3M melanoma): 3.17 µM
- TGI (MALME-3M melanoma): > 100 µM
- GI50 (PC-3 prostate): 5.75 µM
- TGI (PC-3 prostate): > 100 µM
- GI50 (UACC-257 melanoma): > 100 µM
- TGI (UACC-257 melanoma): > 100 µM
- GI50 (NCI/ADR-RES ovarian): 3.45 µM
- TGI (NCI/ADR-RES ovarian): 22.5 µM
- GI50 (HL-60(TB) leukemia): > 100 µM
- TGI (HL-60(TB) leukemia): > 100 µM
- GI50 (U251 CNS): 2.01 µM
- TGI (U251 CNS): 4.45 µM
